Experimental data taken from patent publication US8343961B2, “Substituted heterocyclic compounds” (ArQule, Inc., priority 2009, dated 2013).

Tests used:
[1] = molecular target: T1, EphA8 (Homo sapiens, UniProt P29322); assay: EphA8 Kinase Activity Assay; assay type: biochemical; settings: read-out: EphA8, % INH, at 30 uM
T1 sequence (P29322 28-1005): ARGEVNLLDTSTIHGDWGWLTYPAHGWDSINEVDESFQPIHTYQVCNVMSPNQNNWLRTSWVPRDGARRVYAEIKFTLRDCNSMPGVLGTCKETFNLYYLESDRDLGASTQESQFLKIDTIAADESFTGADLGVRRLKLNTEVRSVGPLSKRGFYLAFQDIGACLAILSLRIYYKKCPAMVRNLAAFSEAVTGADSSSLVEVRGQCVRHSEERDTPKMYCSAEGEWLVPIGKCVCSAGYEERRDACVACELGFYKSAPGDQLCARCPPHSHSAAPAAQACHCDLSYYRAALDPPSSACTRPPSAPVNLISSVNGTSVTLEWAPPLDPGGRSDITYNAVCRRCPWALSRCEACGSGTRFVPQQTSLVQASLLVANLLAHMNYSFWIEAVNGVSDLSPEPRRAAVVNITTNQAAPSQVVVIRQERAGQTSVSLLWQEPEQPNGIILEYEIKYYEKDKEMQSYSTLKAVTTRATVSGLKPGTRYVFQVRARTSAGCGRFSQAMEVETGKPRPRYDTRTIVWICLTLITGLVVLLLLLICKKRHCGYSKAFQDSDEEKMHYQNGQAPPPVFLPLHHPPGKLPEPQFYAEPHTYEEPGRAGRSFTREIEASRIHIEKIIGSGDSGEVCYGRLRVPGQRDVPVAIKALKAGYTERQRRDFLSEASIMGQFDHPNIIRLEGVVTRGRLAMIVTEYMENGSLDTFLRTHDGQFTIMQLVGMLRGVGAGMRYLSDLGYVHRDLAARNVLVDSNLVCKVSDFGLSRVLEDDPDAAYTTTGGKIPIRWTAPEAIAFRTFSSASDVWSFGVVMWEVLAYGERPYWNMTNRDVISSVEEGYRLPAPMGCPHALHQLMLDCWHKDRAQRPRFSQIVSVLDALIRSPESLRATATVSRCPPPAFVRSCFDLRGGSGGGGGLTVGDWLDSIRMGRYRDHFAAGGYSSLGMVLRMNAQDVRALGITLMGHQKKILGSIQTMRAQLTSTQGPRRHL
Protocol: (§1) Nunc Maxisorb plates are coated with streptavidin by overnight incubation with 100 μL per well of 1 μg/ml Streptavidin in DPBS. Prior to the start of the experiment, the plates are washed with TBST (3×200 μL) and blocked for at least 1 hour by adding 150 μL of 5% BSA/TBST. The plates are washed with TBST (3×200 μL/well) and left dry immediately before the capture step.
The test articles and control (Staurosporine) are prepared using the following assay buffer @ 3× desired final concentration (50 mM Tris-HCl, 0.02 mg/ml BSA, 10 mM MgCl2, 0.1 mM Na3VO4, 1 mM EGTA, 12.5 μM ATP, 0.01% NP-40, 1 mM DTT in 10% glycerol/water). In a reaction plate are added rapidly 20 μl test article (or control) and 20 μl EphA8 (0.12 ng/μl final concentration). The plate is incubated for 15 minutes. To the reaction plate is added 20 μl of Pyk-2 (0.75 ng/μl final concentration). The plate is incubated at room temperature for one hour. From the reaction plate, 50 μl is transferred to the streptavidin coated plate. The capture plate is incubated at room temperature for 30 minutes, then washed 6× with TBST. To the capture plate is added 100 μL/well of Cell Signaling anti-phospho tyrosine at a dilution of 1:3000 in 2% BSA/TBST. The plate is incubated for one hour at room temperature then washed 6× with TBST. To the capture plate is added 100 μL/well of Alkaline Phosphatase Tagged Goat anti Mouse Antibody at a dilution of 1:4000 in 2% BSA/TBST. The plate is incubated for one hour at room temperature then washed 6× with TBST. The fluorescent readout is initiated by the addition of 100 μl/well of Attophos reagent (6 mg/10 mL). The reading is done on the Perkin Elmer Envision system.

[2] = molecular target: RET kinase (Homo sapiens, UniProt P07949); assay: RET Kinase Activity Assay; assay type: biochemical; settings: read-out: Ret, % INH, at 30 uM
Sequence of RET kinase (P07949 29-1114): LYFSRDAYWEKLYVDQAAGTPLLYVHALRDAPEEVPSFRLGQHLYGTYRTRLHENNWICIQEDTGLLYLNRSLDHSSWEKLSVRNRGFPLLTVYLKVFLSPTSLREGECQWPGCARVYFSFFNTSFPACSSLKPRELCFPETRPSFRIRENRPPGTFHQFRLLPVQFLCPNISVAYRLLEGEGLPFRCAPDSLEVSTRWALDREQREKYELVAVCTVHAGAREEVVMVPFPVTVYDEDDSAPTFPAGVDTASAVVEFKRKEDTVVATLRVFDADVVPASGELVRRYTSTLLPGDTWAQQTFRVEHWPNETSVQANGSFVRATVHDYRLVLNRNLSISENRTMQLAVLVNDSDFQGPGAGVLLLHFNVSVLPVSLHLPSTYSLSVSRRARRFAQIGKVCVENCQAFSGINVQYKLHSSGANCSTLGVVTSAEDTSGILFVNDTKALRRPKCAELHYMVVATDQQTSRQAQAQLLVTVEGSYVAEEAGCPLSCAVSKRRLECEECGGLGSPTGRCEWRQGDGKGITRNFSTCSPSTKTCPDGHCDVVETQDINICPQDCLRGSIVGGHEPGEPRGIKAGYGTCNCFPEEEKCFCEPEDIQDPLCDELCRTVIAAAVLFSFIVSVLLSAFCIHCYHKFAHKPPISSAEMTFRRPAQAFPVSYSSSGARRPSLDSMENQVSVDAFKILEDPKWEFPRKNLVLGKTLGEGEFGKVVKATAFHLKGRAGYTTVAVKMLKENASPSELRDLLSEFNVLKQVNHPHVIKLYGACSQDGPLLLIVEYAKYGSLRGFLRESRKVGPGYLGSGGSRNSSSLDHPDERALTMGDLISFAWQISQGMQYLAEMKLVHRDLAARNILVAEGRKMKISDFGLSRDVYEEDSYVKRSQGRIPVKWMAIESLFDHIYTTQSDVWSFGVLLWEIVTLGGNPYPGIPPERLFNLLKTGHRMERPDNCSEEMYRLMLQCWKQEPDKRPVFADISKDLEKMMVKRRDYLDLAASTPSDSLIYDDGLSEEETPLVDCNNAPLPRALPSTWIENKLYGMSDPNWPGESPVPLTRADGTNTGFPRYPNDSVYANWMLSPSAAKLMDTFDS
Protocol: as §1, with “The disclosed compounds were assayed for their ability to inhibit the activity of RET kinase. Nunc” for “Nunc”, “Maxwasorb” for “Maxisorb”, “were” for “are”, “μg/mL” for “μg/ml”, “[…])” for “μL/well)”
The test articles and controls (Staurosporine and Sutent) were prepared using the following assay buffer @ 3× desired final concentration (50 mM […], 0.02 mg/mL BSA, 10 mM MgCl2, 0.1 mM Na3VO4, 1 mM EGTA, 75 μM ATP0.01% NP-40, 2 mM DTT in 10% glycerol/water). In a reaction plate, were added rapidly 20 μL test article (or control) and 20 μL RET (0.25 ng/4 final concentration). The plate was incubated for 15 minutes. To the reaction plate was added 20 μL of Pyk-2 (0.25 ng/4 final concentration). The plate was incubated at room temperature for one hour.
From the reaction plate, 50 μL was transferred to the streptavidin coated plate. The capture plate was incubated at room temperature for 30 minutes then washed 6× with TBST. To the capture plate was added 100 μL/well of Cell Signaling anti-phospho tyrosine at a dilution of 1:3000 in 2% BSA/TBST. The plate was incubated for one hour at room temperature then washed 6× with TBST. To the capture plate was added 100 μL/well of Alkaline Phosphatase Tagged Goat anti Mouse Antibody at a dilution of 1:4000 in 2% BSA/TBST. The plate was incubated for one hour at room temperature then washed 6× with TBST. The fluorescent readout was initiated by the addition of 100 μL/well of Attophos reagent (6 mg/10 mL). The reading was done on the Perkin Elmer Envision system.

SMILES | inhibition at 30 µM [1] | inhibition at 30 µM [2]
COc1cccc(CN2CCN(c3nc(N)nc4[nH]cnc34)Cc3ccccc32)c1 [Compound 2, 6-[1-(3-methoxybenzyl)-1,2,3,5-tetrahydro-4H-1,4-benzodiazepin-4-yl]-9H-purin-2-amine] | < 50% | 50 to 79%
CC(C)c1ccc(CN2CCN(c3nc(N)nc4[nH]ncc34)Cc3ccccc32)cc1 [Compound 4, 4-[1-(4-isopropylbenzyl)-1,2,3,5-tetrahydro-4H-1,4-benzodiazepin-4-yl]-1H-pyrazolo[3,4-d]pyrimidin-6-amine] | < 50% | < 50%
Nc1nc(N2CCN(Cc3ccc(Cl)c(Cl)c3)c3ccccc3C2)c2cn[nH]c2n1 [Compound 43, 4-[1-(3,4-dichlorobenzyl)-1,2,3,5-tetrahydro-4H-1,4-benzodiazepin-4-yl]-1H-pyrazolo[3,4-d]pyrimidin-6-amine] | 50 to 79% | 50 to 79%
Nc1nc(N2CCN(Cc3cccc(C(F)(F)F)c3)c3ccccc3C2)c2nc[nH]c2n1 [Compound 20, 6-{1-[3-(trifluoromethyl)benzyl]-1,2,3,5-tetrahydro-4H-1,4-benzodiazepin-4-yl}-9H-purin-2-amine] | 50 to 79% | < 50%
CC(C)(C)c1ccc(CN2CCN(c3nc(N)nc4[nH]ncc34)Cc3ccccc32)cc1 [Compound 30, 4-[1-(4-tert-butylbenzyl)-1,2,3,5-tetrahydro-4H-1,4-benzodiazepin-4-yl]-1H-pyrazolo[3,4-d]pyrimidin-6-amine] | < 50% | 50 to 79%
Nc1nc(N2CCN(Cc3ccc(F)cc3)c3ccccc3C2)c2cn[nH]c2n1 [Compound 16, 4-[1-(4-fluorobenzyl)-1,2,3,5-tetrahydro-4H-1,4-benzodiazepin-4-yl]-1H-pyrazolo[3,4-d]pyrimidin-6-amine] | 50 to 79% | < 50%
Nc1nc(N2CCN(CCCc3cccc(Cl)c3)c3ccccc3C2)c2nc[nH]c2n1 [Compound 7, 6-{1-[3-(3-chlorophenyl)propyl]-1,2,3,5-tetrahydro-4H-1,4-benzodiazepin-4-yl}-9H-purin-2-amine] | < 50% | < 50%
Nc1nc(N2CCN(Cc3ccc(F)cc3F)c3ccccc3C2)c2cn[nH]c2n1 [Compound 38, 4-[1-(2,4-difluorobenzyl)-1,2,3,5-tetrahydro-4H-1,4-benzodiazepin-4-yl]-1H-pyrazolo[3,4-d]pyrimidin-6-amine] | < 50% | < 50%
Cc1ccc(CCCN2CCN(c3nc(N)nc4[nH]cnc34)Cc3ccccc32)cc1 [Compound 44, 6-{1-[3-(4-methylphenyl)propyl]-1,2,3,5-tetrahydro-4H-1,4-benzodiazepin-4-yl}-9H-purin-2-amine] | < 50% | < 50%
Cc1ccc(CCCN2CCN(c3nc(N)nc4[nH]ncc34)Cc3ccccc32)cc1 [Compound 45, 4-{1-[3-(4-methylphenyl)propyl]-1,2,3,5-tetrahydro-4H-1,4-benzodiazepin-4-yl}-1H-pyrazolo[3,4-d]pyrimidin-6-amine] | 50 to 79% | 50 to 79%
COc1ccc(OC)c(CN2CCN(c3nc(N)nc4[nH]ncc34)Cc3ccccc32)c1 [Compound 36, 4-[1-(2,5-dimethoxybenzyl)-1,2,3,5-tetrahydro-4H-1,4-benzodiazepin-4-yl]-1H-pyrazolo[3,4-d]pyrimidin-6-amine] | < 50% | < 50%
Nc1nc(N2CCN(Cc3ccc(F)c(F)c3)c3ccccc3C2)c2cn[nH]c2n1 [Compound 47, 4-[1-(3,4-difluorobenzyl)-1,2,3,5-tetrahydro-4H-1,4-benzodiazepin-4-yl]-1H-pyrazolo[3,4-d]pyrimidin-6-amine] | < 50% | 50 to 79%
Nc1nc(N2CCN(Cc3cccc(C(F)(F)F)c3)c3ccccc3C2)c2cn[nH]c2n1 [Compound 21, 4-{1-[3-(trifluoromethyl)benzyl]-1,2,3,5-tetrahydro-4H-1,4-benzodiazepin-4-yl}-1H-pyrazolo[3,4-d]pyrimidin-6-amine] | < 50% | < 50%
Cc1cccc(CN2CCN(c3nc(N)nc4[nH]cnc34)Cc3ccccc32)c1 [Compound 33, 6-[1-(3-methylbenzyl)-1,2,3,5-tetrahydro-4H-1,4-benzodiazepin-4-yl]-9H-purin-2-amine] | < 50% | 50 to 79%
COc1cc2c(cc1OC)C(CCc1ccccc1)N(c1nc(N)nc3[nH]ncc13)CC2 (centres unmarked) [Compound 51, 4-[6,7-dimethoxy-1-(2-phenylethyl)-3,4-dihydroisoquinolin-2(1H)-yl]-1H-pyrazolo[3,4-d]pyrimidin-6-amine] | < 50% | 50 to 79%
Nc1nc(N2CCN(Cc3ccc(F)cc3F)c3ccccc3C2)c2nc[nH]c2n1 [Compound 37, 6-[1-(2,4-difluorobenzyl)-1,2,3,5-tetrahydro-4H-1,4-benzodiazepin-4-yl]-9H-purin-2-amine] | < 50% | 50 to 79%
Nc1nc(N2CCN(Cc3ccc(F)cc3)c3ccccc3C2)c2nc[nH]c2n1 [Compound 15, 6-[1-(4-fluorobenzyl)-1,2,3,5-tetrahydro-4H-1,4-benzodiazepin-4-yl]-9H-purin-2-amine] | < 50% | 50 to 79%
Cc1ccc(CN2CCN(c3nc(N)nc4[nH]cnc34)Cc3ccccc32)cc1 [Compound 26, 6-[1-(4-methylbenzyl)-1,2,3,5-tetrahydro-4H-1,4-benzodiazepin-4-yl]-9H-purin-2-amine] | < 50% | 50 to 79%
Nc1nc(N2CCN(CCCc3ccccc3)c3ccccc3C2)c2cn[nH]c2n1 [Compound 41, 4-[1-(3-phenylpropyl)-1,2,3,5-tetrahydro-4H-1,4-benzodiazepin-4-yl]-1H-pyrazolo[3,4-d]pyrimidin-6-amine] | < 50% | < 50%
